# Read-outs that look alike come from different tables or passages of the source.
# Legend:
# [1] = tested on: Mycobacterium tuberculosis My 331/88 (H37Rv); experiment: microbe, parasite or virus in culture; type: cell-based
# BChE from equine serum = target: T1, BChE from equine serum (Equus caballus, UniProt P81908); experiment: BChE inhibition, modified Ellman's method; type: biochemical
# T1 construct: butyrylcholinesterase from equine serum; from tissue; host or cells: equine serum
# From the text: (§1) The ability of the tested compounds to inhibit AChE from electric eel (Electrophorus electricus L.) and BChE from equine serum was screened in vitro using modified Ellman’s method for the evaluation of cholinesterase activity. […] […]. These two standards were chosen due to their different structures. […]. The choice of these drugs with different mechanism of action can provide relevant results. All tested compounds expressed a good inhibitory activity with IC50s in low micromolar values.
# (§2) The IC50 values were determined using the spectrophotometric Ellman’s method, which is a simple, rapid and direct method to determine the SH and -S-S- group content in proteins. This method is widely used for cholinesterase activity evaluation and screening of the efficiency of cholinesterase inhibitors. Cholinesterase activity is measured indirectly by quantifying the concentration of 5-thio-2-nitrobenzoic acid (TNB) ion formed in the reaction between the thiol reagent 5,5'-dithiobis-2-nitrobenzoic acid (DTNB) and thiocholine, a product of substrate hydrolysis by cholinesterase (i.e., acetylthiocholine, ATCh). All the tested compounds were dissolved in dimethyl sulfoxide (concentration 0.01 M) and then diluted in demineralised water (concentration 0.001 M and 0.0001 M). The Ellman’s method is slightly modified according to Zdrazilova et al.. Acetylcholinesterase was obtained from electric eel (Electrophorus electricus L.) and butyrylcholinesterase from equine serum.
# AChE from electric eel = target: T2, AChE from electric eel (Electrophorus electricus, UniProt O42275); experiment: AChE inhibition, modified Ellman's method; type: biochemical, Electrophorus electricus L.
# T2 construct: Acetylcholinesterase was obtained from electric eel (Electrophorus electricus L.); from tissue; host or cells: electric eel (Electrophorus electricus L.)
# From the text: as §1, §2
# [2] = tested on: M. kansasii 6509/96 (clinically isolated); experiment: microbe, parasite or virus in culture; type: cell-based; details: Mycobacterium kansasii, 37 °C
# M. avium My 330/88 = experiment: microbe, parasite or virus in culture; type: cell-based, Mycobacterium avium; details: for MIC: Mycobacterium avium, 37 °C; for MIC values against M. avium: all MIC values (14 and 21 d)
# M. kansasii My 235/80 = experiment: microbe, parasite or virus in culture; type: cell-based, Mycobacterium kansasii; details: for MIC: Mycobacterium kansasii, 37 °C; for MICs for M. kansasii 235/80: all time points
# [3] = 336 h, 14 d, 37 °C, read-out: MIC Mtb 331/88 (H37Rv) 14 d
# [4] = 504 h, 21 d, 37 °C, read-out: MIC Mtb 331/88 (H37Rv) 21 d
# [5] = 168 h, 7 d, read-out: MIC M. kansasii 6509/96 7 d
# [6] = 336 h, 14 d, read-out: MIC M. kansasii 6509/96 14 d
# [7] = 504 h, 21 d, read-out: MIC M. kansasii 6509/96 21 d
# [8] = MY330/88, 336 h, 14 d, read-out: MIC M. avium 330/88 14 d
# [9] = MY330/88, 504 h, 21 d, read-out: MIC M. avium 330/88 21 d
# [10] = MY235/80, 168 h, 7 d, read-out: MIC M. kansasii 235/80 7 d
# [11] = MY235/80, 336 h, 14 d, read-out: MIC M. kansasii 235/80 14 d
# [12] = MY235/80, 504 h, 21 d, read-out: MIC M. kansasii 235/80 21 d
# T1 sequence (P81908 whole entry): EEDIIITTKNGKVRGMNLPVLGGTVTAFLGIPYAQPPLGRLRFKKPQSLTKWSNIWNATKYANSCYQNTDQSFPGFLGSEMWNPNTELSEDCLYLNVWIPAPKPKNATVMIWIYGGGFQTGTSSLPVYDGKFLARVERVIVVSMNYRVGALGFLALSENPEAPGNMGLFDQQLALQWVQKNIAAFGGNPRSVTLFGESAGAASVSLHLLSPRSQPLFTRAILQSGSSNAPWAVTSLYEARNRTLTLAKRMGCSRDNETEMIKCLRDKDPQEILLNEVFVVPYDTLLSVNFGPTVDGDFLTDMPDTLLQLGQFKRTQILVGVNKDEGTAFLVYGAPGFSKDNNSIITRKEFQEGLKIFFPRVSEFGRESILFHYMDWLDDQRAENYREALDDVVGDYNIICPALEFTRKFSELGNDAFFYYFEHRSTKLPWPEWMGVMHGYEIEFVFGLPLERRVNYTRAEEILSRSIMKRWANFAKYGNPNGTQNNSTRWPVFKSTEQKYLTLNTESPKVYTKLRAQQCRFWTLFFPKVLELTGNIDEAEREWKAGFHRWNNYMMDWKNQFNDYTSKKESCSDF
# T2 sequence (O42275 24-633): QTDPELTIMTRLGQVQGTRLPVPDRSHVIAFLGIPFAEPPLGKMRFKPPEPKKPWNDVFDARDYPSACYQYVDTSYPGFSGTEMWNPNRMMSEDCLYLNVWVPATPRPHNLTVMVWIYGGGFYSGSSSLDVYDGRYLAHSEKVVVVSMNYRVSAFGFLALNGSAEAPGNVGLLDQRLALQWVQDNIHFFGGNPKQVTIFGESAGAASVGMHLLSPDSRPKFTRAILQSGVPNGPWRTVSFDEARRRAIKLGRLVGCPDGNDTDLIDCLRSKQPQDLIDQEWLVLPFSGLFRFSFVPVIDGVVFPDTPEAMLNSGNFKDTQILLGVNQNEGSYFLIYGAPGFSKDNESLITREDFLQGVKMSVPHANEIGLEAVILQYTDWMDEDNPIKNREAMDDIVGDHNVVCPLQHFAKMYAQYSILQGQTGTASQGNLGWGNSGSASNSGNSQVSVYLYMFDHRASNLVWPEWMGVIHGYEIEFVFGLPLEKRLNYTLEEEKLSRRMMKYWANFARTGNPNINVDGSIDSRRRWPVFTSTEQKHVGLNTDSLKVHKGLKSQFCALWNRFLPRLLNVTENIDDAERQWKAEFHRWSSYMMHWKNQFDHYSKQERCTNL
Structure (SMILES),"MIC [1, 3]","MIC [1, 4]",IC50 (BChE from equine serum),IC50 (AChE from electric eel),"MIC [2, 5]","MIC [2, 6]","MIC [2, 7]",MIC (M. avium My 330/88; [8]),MIC (M. avium My 330/88; [9]),MIC (M. kansasii My 235/80; [10]),MIC (M. kansasii My 235/80; [11]),MIC (M. kansasii My 235/80; [12]),MIC ([1]; read-out: MIC against Mtb),MIC values against M. avium (M. avium My 330/88),MICs for M. kansasii 235/80 (M. kansasii My 235/80)
"CCOP(=S)(OCC)Oc1ccc(Br)cc1C(=O)Nc1cccc(Cl)c1 [1a, O-{4-Bromo-2-[(3-chlorophenyl)carbamoyl]phenyl} O,O-diethyl phosphorothioate]",8 µM,16 µM,13.9 ± 0.05 µM,12.6 ± 0.05 µM,125 µM,500 µM,500 µM,500 µM,> 500 µM,125 µM,500 µM,500 µM,–,–,–
"CCOP(=S)(OCC)Oc1ccc(Br)cc1C(=O)Nc1ccc(Cl)cc1 [1b, O-{4-Bromo-2-[(4-chlorophenyl)carbamoyl]phenyl} O,O-diethyl phosphorothioate]",16 µM,16 µM,13.5 ± 0.9 µM,12.9 ± 0.1 µM,125 µM,500 µM,500 µM,500 µM,500 µM,125 µM,500 µM,500 µM,–,–,–
"CCOP(=S)(OCC)Oc1ccc(Br)cc1C(=O)Nc1ccc(Cl)c(Cl)c1 [1c, O-{4-Bromo-2-[(3,4-dichlorophenyl)carbamoyl]phenyl} O,O-diethyl phosphorothioate]",4 µM,4 µM,18.8 ± 0.7 µM,14 ± 0.1 µM,62.5 µM,125 µM,125 µM,500 µM,500 µM,62.5 µM,250 µM,500 µM,4 µM,–,–
CCOP(=S)(OCC)Oc1ccc(Br)cc1C(=O)Nc1cccc(Br)c1 [1d],16 µM,16 µM,20 ± 0.2 µM,11.3 ± 0.05 µM,125 µM,125 µM,125 µM,125 µM,125 µM,125 µM,125 µM,125 µM,–,≤ 250 µM,≤ 250 µM
"CCOP(=S)(OCC)Oc1ccc(Br)cc1C(=O)Nc1ccc(Br)cc1 [1e, O-{4-Bromo-2-[(4-bromophenyl)carbamoyl]phenyl} O,O-diethyl phosphorothioate]",8 µM,16 µM,18.9 ± 0.2 µM,10.7 µM,62.5 µM,250 µM,250 µM,250 µM,250 µM,125 µM,250 µM,250 µM,–,≤ 250 µM,≤ 250 µM
"CCOP(=S)(OCC)Oc1ccc(Br)cc1C(=O)Nc1cccc(F)c1 [1f, O-{4-Bromo-2-[(3-fluorophenyl)carbamoyl]phenyl} O,O-diethyl phosphorothioate]",8 µM,16 µM,12.2 µM,12.7 ± 0.05 µM,62.5 µM,250 µM,250 µM,250 µM,500 µM,62.5 µM,250 µM,500 µM,–,–,–
"CCOP(=S)(OCC)Oc1ccc(Br)cc1C(=O)Nc1ccc(F)cc1 [1g, O-{4-Bromo-2-[(4-fluorophenyl)carbamoyl]phenyl} O,O-diethyl phosphorothioate]",32 µM,32 µM,12.6 ± 0.3 µM,12.4 ± 0.05 µM,125 µM,250 µM,250 µM,500 µM,> 500 µM,125 µM,500 µM,> 500 µM,–,–,–
"CCOP(=S)(OCC)Oc1ccc(Br)cc1C(=O)Nc1cccc(C(F)(F)F)c1 [1h, O-(4-Bromo-2-{[3-(trifluoromethyl)phenyl]carbamoyl}phenyl) O,O-diethyl phosphorothioate]",8 µM,8 µM,20 ± 0.5 µM,13 ± 0.02 µM,32 µM,62.5 µM,125 µM,125 µM,125 µM,32 µM,62.5 µM,125 µM,8 µM,≤ 250 µM,≤ 250 µM
